According to patent US20130217664A1, “NOVEL COMPOUNDS USEFUL FOR THE TREATMENT OF DEGENERATIVE AND INFLAMMATORY DISEASES” (priority 2012, published 2013):

What was measured:
Type in all cases: biochemical
human JAK2 = target: T1, human JAK2 (Homo sapiens, UniProt O60674); experiment: JAK2 inhibition assay (polyGT substrate / Ulight-JAK1 peptide); conditions: recombinant human JAK2 catalytic domain; polyGT or Ulight-JAK1 peptide assay
T1 construct: catalytic domain (amino acids 808-1132; catalog number PV4210); GST; purchased Invitrogen PV4210
T1 sequence (O60674 808-1132): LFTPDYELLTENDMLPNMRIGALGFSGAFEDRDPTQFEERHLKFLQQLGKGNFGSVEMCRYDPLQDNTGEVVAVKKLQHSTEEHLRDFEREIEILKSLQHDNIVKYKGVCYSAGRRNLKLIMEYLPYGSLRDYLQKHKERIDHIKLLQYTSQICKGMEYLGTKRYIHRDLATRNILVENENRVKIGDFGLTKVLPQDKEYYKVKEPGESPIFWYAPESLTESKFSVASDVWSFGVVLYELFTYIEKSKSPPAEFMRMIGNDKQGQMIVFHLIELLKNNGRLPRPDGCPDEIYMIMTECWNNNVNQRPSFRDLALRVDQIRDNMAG
How it was run: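 Radiometric: 0.025 mU JAK2 with 2.5 μg polyGT, 1 μM ATP plus ^33P-ATP in MOPS pH 7.5 buffer, 1% DMSO, 90 min at 30° C.; filter counting. Alternative TR-FRET format with Ulight-JAK1 peptide, 60 min at room temperature, Eu-anti-phosphotyrosine detection.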

human JAK1 = target: T2, human JAK1 (Homo sapiens, UniProt P23458); experiment: JAK1 inhibition assay (polyGT substrate / Ulight-JAK1 peptide); conditions: recombinant human JAK1 catalytic domain; polyGT or Ulight-JAK1 peptide assay
T2 construct: catalytic domain, amino acids 866-1154; catalog number PV4774; purchased Invitrogen PV4774
T2 sequence (P23458 866-1154): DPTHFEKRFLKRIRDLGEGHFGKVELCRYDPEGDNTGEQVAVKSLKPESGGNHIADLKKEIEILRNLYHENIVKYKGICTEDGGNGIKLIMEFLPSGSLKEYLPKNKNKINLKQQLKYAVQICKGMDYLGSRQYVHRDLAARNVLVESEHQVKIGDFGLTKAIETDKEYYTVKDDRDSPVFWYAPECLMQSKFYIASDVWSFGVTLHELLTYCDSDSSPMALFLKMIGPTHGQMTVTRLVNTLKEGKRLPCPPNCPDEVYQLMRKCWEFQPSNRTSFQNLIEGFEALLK
How it was run: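 Two formats. PolyGT radiometric: 45 min at 30 °C, stopped with phosphoric acid, counted as cpm. Ulight-JAK1 peptide: 60 min at room temperature, stopped with Eu-anti-phosphotyrosine/EDTA, read as RFU. Percent inhibition normalised to vehicle and 10 μM staurosporine.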

human TYK2 = target: T3, human TYK2 (Homo sapiens, UniProt P29597); experiment: TYK2 inhibition assay; conditions: recombinant human TYK2 catalytic domain, polyGT substrate
T3 construct: catalytic domain (amino acids 871-1187; catalog number 08-147); purchased Carna Biosciences 08-147
T3 sequence (P29597 871-1187): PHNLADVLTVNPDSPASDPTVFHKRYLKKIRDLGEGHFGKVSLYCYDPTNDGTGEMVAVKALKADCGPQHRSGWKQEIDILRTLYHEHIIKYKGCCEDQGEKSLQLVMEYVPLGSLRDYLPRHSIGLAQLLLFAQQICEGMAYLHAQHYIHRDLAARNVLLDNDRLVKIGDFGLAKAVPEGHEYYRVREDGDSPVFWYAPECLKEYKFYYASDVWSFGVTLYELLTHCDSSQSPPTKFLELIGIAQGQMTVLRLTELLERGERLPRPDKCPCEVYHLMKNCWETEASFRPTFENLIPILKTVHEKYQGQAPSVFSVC
Experimental: 1.4 TYK2 Inhibition Assay
After 90 min at 30° C., reactions were stopped by adding 25 μL/well of 150 mM phosphoric acid. […] Plates were washed 6 times with 300 μL per well of a 75 mM phosphoric acid solution and the bottom of the plates was sealed. 40 μL/well of Microscint-20 was added, the top of the plates was sealed and readout was performed using the Topcount (Perkin Elmer). Kinase activity was calculated by subtracting counts per min (cpm) obtained in the presence of a positive control inhibitor (10 μM staurosporine) from cpm obtained in the presence of vehicle. The ability of a test compound to inhibit this activity was determined as:
(§1) Percentage inhibition=((cpm determined for sample with test compound present−cpm determined for sample with positive control inhibitor)divided by(cpm determined in the presence of vehicle−cpm determined for sample with positive control inhibitor))*100.
Dose dilution series were prepared for the compounds enabling the testing of dose-response effects in the TYK2 assay and the calculation of the IC50 for each compound.

human JAK3 = target: T4, human JAK3 (Homo sapiens, UniProt P52333); experiment: JAK3 inhibition assay; conditions: recombinant human JAK3 catalytic domain; polyGT substrate
T4 construct: catalytic domain (amino acids 781-1124; catalog number PV3855); purchased Invitrogen PV3855
T4 sequence (P52333 781-1124): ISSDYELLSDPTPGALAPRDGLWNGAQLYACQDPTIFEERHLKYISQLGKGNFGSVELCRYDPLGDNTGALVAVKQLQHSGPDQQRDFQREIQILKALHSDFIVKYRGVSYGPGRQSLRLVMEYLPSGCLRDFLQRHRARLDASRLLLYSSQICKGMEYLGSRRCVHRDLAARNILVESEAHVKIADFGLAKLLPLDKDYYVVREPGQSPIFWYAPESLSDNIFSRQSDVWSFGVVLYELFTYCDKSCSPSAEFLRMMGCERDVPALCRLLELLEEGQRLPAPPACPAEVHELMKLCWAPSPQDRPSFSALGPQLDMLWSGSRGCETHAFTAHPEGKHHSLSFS
Experimental: 1.3 JAK3 Inhibition Assay
0.5 ng JAK3 protein was incubated with 2.5 μg polyGT substrate (Sigma catalog number P0275) in kinase reaction buffer (25 mM Tris pH 7.5, 0.5 mM EGTA, 10 mM MgCl2, 2.5 mM DTT, 0.5 mM Na3VO4, 5 mM b-glycerolphosphate, 0.01% Triton X-100, 1 μM non-radioactive ATP, 0.25 μCi 33P-gamma-ATP (GE Healthcare, catalog number AH9968) final concentrations) with or without 5 μL containing test compound or vehicle (DMSO, 1% final concentration), in a total volume of 25 μL, in a polypropylene 96-well plate (Greiner, V-bottom). After 45 min at 30° C., reactions were stopped by adding 25 μL/well of 150 mM phosphoric acid. […] Plates were washed 6 times with 300 μL per well of a 75 mM phosphoric acid solution and the bottom of the plates was sealed. 40 μL/well of Microscint-20 was added, the top of the plates was sealed and readout was performed using the Topcount (Perkin Elmer). Kinase activity was calculated by subtracting counts per min (cpm) obtained in the presence of a positive control inhibitor (10 μM staurosporine) from cpm obtained in the presence of vehicle. The ability of a test compound to inhibit this activity was determined as:
as §1
Dose dilution series were prepared for the compounds enabling the testing of dose-response effects in the JAK3 assay and the calculation of the IC50 for each compound. Each compound was routinely tested at concentration of 20 μM followed by a 1/5 serial dilution, 10 points in a final concentration of 1% DMSO.

SMILES | IC50 (human JAK2) | IC50 (human JAK1) | IC50 (human TYK2) | IC50 (human JAK3)
CN(c1ccc(OC(F)(F)F)cc1)c1cc2c(cn1)ncn2C [Compound 1, N,1-dimethyl-N-(4-(trifluoromethoxy)phenyl)-1H-imidazo[4,5-c]pyridin-6-amine] | > 1000 nM | 101 to 500 nM | > 1000 nM | > 1000 nM
COc1ccc(N(C)c2cc3c(cn2)ncn3C)cc1 [Compound 2, N-(4-methoxyphenyl)-N,1-dimethyl-1H-imidazo[4,5-c]pyridin-6-amine] | > 1000 nM | 101 to 500 nM | > 1000 nM | > 1000 nM
CCN(c1ccc2occc2c1)c1cc2c(cn1)ncn2C [Compound 4, N-(benzofuran-5-yl)-N-ethyl-1-methyl-1H-imidazo[4,5-c]pyridin-6-amine] | > 1000 nM | 101 to 500 nM | 101 to 500 nM | > 1000 nM
CCN(c1ccc2c(cnn2C)c1)c1cc2c(cn1)ncn2C [Compound 5, N-ethyl-1-methyl-N-(1-methyl-1H-indazol-5-yl)-1H-imidazo[4,5-c]pyridin-6-amine] | > 1000 nM | 101 to 500 nM | 501 to 1000 nM | > 1000 nM
Cc1cc(OCc2cccnc2)ccc1N(C)c1cc2c(cn1)ncn2C [Compound 55, N,1-dimethyl-N-(2-methyl-4-(pyridin-3-ylmethoxy)phenyl)-1H-imidazo[4,5-c]pyridin-6-amine] | > 1000 nM | 101 to 500 nM | > 1000 nM | > 1000 nM
CN(c1cc2c(cn1)ncn2C)c1ccccc1F [Compound 67, N-(2-fluorophenyl)-N,1-dimethyl-1H-imidazo[4,5-c]pyridin-6-amine] | > 1000 nM | 101 to 500 nM | 101 to 500 nM | > 1000 nM
CN(c1cc2c(cn1)ncn2C)c1ccccc1Cl [Compound 68, N-(2-Chlorophenyl)-N,1-dimethyl-1H-imidazo[4,5-c]pyridin-6-amine] | > 1000 nM | 101 to 500 nM | 501 to 1000 nM | > 1000 nM
Cc1cc(OCc2ccc(C#N)nc2)ccc1N(C)c1cc2c(cn1)ncn2C [Compound 89, 5-((3-methyl-4-(methyl(1-methyl-1H-imidazo[4,5-c]pyridin-6-yl)amino)phenoxy)methyl) picolinonitrile] | > 1000 nM | 101 to 500 nM | > 1000 nM | > 1000 nM
Cc1ccc(OCc2ccc(C#N)nc2)cc1N(C)c1cc2c(cn1)ncn2C [Compound 92, 5-((4-methyl-3-(methyl(1-methyl-1H-imidazo[4,5-c]pyridin-6-yl)amino)phenoxy)methyl) picolinonitrile] | > 1000 nM | 0.01 to 100 nM | > 1000 nM | > 1000 nM
CCc1cc(OCC(N)=O)ccc1N(C)c1cc2c(cn1)ncn2C [Compound 299] | 101 to 500 nM | 0.01 to 100 nM | 101 to 500 nM | > 1000 nM
CCc1cc(CNC2CCS(=O)(=O)C2)ccc1N(C)c1cc2c(cn1)ncn2C (stereo not drawn) [Compound 300, {4-[(1,1-Dioxo-tetrahydro-thiophen-3-ylamino)-methyl]-2-ethyl-phenyl}-methyl-(1-methyl-1H-imidazo[4,5-c]pyridin-6-yl)-amine] | 101 to 500 nM | 0.01 to 100 nM | 501 to 1000 nM | > 1000 nM
CCc1cc(-c2ccc(C#N)s2)ncc1N(C)c1cc2c(cn1)ncn2C [Compound 301, 5-{4-Ethyl-5-[methyl-(1-methyl-1H-imidazo[4,5-c]pyridin-6-yl)-amino]-pyridin-2-yl}-thiophene-2-carbonitrile] | 0.01 to 100 nM | 0.01 to 100 nM | 0.01 to 100 nM | 0.01 to 100 nM
CCn1nc(C)cc1N(C)c1cc2c(cn1)ncn2C [Compound 305, (2-Ethyl-5-methyl-2H-pyrazol-3-yl)-methyl-(1-methyl-1H-imidazo[4,5-c]pyridin-6-yl)-amine] | > 1000 nM | > 1000 nM | > 1000 nM | > 1000 nM
CN(c1cc2c(cn1)ncn2C)c1cc(C2CC2)nn1C [Compound 306, (5-Cyclopropyl-2-methyl-2H-pyrazol-3-yl)-methyl-(1-methyl-1H-imidazo[4,5-c]pyridin-6-yl)-amine] | > 1000 nM | > 1000 nM | > 1000 nM | > 1000 nM
CCc1cn(C2(CC#N)CN(C(=O)OC(C)(C)C)C2)nc1N(C)c1cc2c(cn1)ncn2C [Compound 308, 3-Cyanomethyl-3-{4-ethyl-3-[methyl-(1-methyl-1H-imidazo[4,5-c]pyridin-6-yl)-amino]-pyrazol-1-yl}-azetidine-1-carboxylic acid tert-butyl ester] | > 1000 nM | > 1000 nM | > 1000 nM | > 1000 nM
CCc1cn(C2(CC#N)CNC2)nc1N(C)c1cc2c(cn1)ncn2C [Compound 309, (3-{4-Ethyl-3-[methyl-(1-methyl-1H-imidazo[4,5-c]pyridin-6-yl)-amino]-pyrazol-1-yl}-azetidin-3-yl)-acetonitrile] | > 1000 nM | > 1000 nM | > 1000 nM | > 1000 nM
CCc1cn(C2(CC#N)CN(S(C)(=O)=O)C2)nc1N(C)c1cc2c(cn1)ncn2C [Compound 310, (3-{4-Ethyl-3-[methyl-(1-methyl-1H-imidazo[4,5-c]pyridin-6-yl)-mino]-pyrazol-1-yl}-1-methanesulfonyl-azetidin-3-yl)-acetonitrile] | > 1000 nM | > 1000 nM | > 1000 nM | > 1000 nM
CCc1cc(CN(C)S(C)(=O)=O)ncc1N(C)c1cc2c(cn1)ncn2C [Compound 317, N-{4-Ethyl-5-[methyl-(1-methyl-1H-imidazo[4,5-c]pyridin-6-yl)-amino]-pyridin-2-ylmethyl}-N-methyl-methane sulfonamide] | 101 to 500 nM | 0.01 to 100 nM | 0.01 to 100 nM | 0.01 to 100 nM
CCc1cc(N2CCCC2=O)ncc1N(C)c1cc2c(cn1)ncn2C [Compound 318, 1-{4-Ethyl-5-[methyl-(1-methyl-1H-imidazo[4,5-c]pyridin-6-yl)-amino]-pyridin-2-yl}-pyrrolidin-2-one] | 501 to 1000 nM | 101 to 500 nM | > 1000 nM | > 1000 nM
CCc1cc(C#N)c(C(F)(F)F)cc1N(C)c1cc2c(cn1)ncn2C [Compound 321, 5-Ethyl-4-[methyl-(1-methyl-1H-imidazo[4,5-c]pyridin-6-yl)-amino]-2-trifluoromethyl-benzonitrile] | > 1000 nM | > 1000 nM | > 1000 nM | > 1000 nM
CCc1cc(C2CN(C(=O)CC#N)C2)ncc1N(C)c1cc2c(cn1)ncn2C [Compound 335, 3-(3-{4-Ethyl-5-[methyl-(1-methyl-1H-imidazo[4,5-c]pyridin-6-yl)-amino]-pyridin-2-yl}-azetidin-1-yl)-3-oxo-propionitrile] | 501 to 1000 nM | 0.01 to 100 nM | > 1000 nM | > 1000 nM
CCc1ccccc1N(CCC#N)c1cc2c(cn1)ncn2C [Compound 464, 3-((2-ethylphenyl)(1-methyl-1H-imidazo[4,5-c]pyridin-6-yl)amino)propanenitrile] | > 1000 nM |  | > 1000 nM | > 1000 nM
